In US11945798B2, “Substituted aminopyridine compounds as EGFR inhibitors” (YUHAN CORPORATION, priority 2021, dated 2024):
Read-outs that look alike come from different tables or passages of the source.

Experiments:
EGFR del19/T790M/C797S = EGFR del19/T790M/C797S (Homo sapiens, UniProt P00533, C797S/DEL746-750/T790M); experiment: Biochemical EGFR kinase assay (Lance Ultra TR-FRET), del19/T790M/C797S
In short: (§1)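 Step 1: compound in kinase buffer, 0.003–10 μM. Step 2: kinase reaction 1 h at room temperature. Step 4: TR-FRET read at 615/665 nm; IC50 calculated.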

EGFR L858R/T790M/C797S = EGFR L858R/T790M/C797S (Homo sapiens, UniProt P00533, C797S/L858R/T790M); experiment: Biochemical EGFR kinase assay (Lance Ultra TR-FRET), L858R/T790M/C797S
In short: as §1

EGFR del19/C797S = EGFR del19/C797S (Homo sapiens, UniProt P00533, C797S/DEL746-750); experiment: Biochemical EGFR kinase assay (Lance Ultra TR-FRET), del19/C797S
In short: as §1

EGFR L858R/C797S = EGFR L858R/C797S (Homo sapiens, UniProt P00533, C797S/L858R); experiment: Biochemical EGFR kinase assay (Lance Ultra TR-FRET), L858R/C797S
In short: as §1

EGFR wildtype (WT) = EGFR wildtype (WT) (Homo sapiens, UniProt P00533); experiment: Biochemical EGFR kinase assay (Lance Ultra TR-FRET), wildtype
In short: as §1

[1] = IC50 del19/T790M/C797S (nM) 100 μM ATP, 100 μM ATP
[2] = Km ATP, read-out: IC50 del19/T790M/C797S (nM) Km ATP
[3] = IC50 L858R/T790M/C797S (nM) 100 μM ATP, 100 μM ATP
[4] = Km ATP, read-out: IC50 L858R/T790M/C797S (nM) Km ATP
[5] = IC50 del19/C797S (nM) 100 μM ATP, 100 μM ATP
[6] = IC50 L858R/C797S (nM) 100 μM ATP, 100 μM ATP
[7] = Km ATP, read-out: IC50 L858R/C797S (nM) Km ATP
[8] = IC50 WT (nM) 100 μM ATP, 100 μM ATP
[9] = Km ATP, read-out: IC50 WT (nM) Km ATP
[10] = Km ATP, read-out: IC50 del19/C797S (nM) Km ATP

Chain of EGFR del19/T790M/C797S (P00533 with tags, fused parts or gaps DEL746-750/T790M/C797S): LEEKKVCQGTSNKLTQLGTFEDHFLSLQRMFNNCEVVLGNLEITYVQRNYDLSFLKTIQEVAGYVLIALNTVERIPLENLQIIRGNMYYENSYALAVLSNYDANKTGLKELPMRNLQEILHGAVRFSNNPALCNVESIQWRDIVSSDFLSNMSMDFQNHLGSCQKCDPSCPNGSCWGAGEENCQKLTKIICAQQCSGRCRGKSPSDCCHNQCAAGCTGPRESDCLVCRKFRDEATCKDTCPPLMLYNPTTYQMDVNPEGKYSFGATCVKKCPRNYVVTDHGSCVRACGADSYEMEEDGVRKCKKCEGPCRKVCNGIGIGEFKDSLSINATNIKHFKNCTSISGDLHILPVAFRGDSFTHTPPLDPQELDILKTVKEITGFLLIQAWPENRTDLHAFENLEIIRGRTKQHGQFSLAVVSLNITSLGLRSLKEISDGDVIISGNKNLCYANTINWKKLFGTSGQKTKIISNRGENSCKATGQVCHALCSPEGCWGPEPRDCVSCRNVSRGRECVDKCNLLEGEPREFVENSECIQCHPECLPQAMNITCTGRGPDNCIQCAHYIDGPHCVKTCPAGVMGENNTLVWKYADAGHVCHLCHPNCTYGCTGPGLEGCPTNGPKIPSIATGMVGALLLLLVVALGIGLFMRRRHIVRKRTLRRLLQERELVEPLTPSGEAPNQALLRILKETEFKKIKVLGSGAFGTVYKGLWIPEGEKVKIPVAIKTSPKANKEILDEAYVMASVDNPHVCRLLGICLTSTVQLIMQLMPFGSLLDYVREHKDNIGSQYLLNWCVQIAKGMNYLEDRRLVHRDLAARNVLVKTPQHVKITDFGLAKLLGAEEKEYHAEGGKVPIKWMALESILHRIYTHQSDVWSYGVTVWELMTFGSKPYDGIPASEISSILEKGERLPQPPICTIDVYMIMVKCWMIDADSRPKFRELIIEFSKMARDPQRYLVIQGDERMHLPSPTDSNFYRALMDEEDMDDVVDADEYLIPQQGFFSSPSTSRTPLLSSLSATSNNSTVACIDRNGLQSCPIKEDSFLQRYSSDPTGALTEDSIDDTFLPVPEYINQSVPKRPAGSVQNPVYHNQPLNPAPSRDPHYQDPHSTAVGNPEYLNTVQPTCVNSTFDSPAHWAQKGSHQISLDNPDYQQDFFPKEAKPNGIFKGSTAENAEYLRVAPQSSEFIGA
Chain of EGFR L858R/C797S (P00533 25-1210 C797S/L858R): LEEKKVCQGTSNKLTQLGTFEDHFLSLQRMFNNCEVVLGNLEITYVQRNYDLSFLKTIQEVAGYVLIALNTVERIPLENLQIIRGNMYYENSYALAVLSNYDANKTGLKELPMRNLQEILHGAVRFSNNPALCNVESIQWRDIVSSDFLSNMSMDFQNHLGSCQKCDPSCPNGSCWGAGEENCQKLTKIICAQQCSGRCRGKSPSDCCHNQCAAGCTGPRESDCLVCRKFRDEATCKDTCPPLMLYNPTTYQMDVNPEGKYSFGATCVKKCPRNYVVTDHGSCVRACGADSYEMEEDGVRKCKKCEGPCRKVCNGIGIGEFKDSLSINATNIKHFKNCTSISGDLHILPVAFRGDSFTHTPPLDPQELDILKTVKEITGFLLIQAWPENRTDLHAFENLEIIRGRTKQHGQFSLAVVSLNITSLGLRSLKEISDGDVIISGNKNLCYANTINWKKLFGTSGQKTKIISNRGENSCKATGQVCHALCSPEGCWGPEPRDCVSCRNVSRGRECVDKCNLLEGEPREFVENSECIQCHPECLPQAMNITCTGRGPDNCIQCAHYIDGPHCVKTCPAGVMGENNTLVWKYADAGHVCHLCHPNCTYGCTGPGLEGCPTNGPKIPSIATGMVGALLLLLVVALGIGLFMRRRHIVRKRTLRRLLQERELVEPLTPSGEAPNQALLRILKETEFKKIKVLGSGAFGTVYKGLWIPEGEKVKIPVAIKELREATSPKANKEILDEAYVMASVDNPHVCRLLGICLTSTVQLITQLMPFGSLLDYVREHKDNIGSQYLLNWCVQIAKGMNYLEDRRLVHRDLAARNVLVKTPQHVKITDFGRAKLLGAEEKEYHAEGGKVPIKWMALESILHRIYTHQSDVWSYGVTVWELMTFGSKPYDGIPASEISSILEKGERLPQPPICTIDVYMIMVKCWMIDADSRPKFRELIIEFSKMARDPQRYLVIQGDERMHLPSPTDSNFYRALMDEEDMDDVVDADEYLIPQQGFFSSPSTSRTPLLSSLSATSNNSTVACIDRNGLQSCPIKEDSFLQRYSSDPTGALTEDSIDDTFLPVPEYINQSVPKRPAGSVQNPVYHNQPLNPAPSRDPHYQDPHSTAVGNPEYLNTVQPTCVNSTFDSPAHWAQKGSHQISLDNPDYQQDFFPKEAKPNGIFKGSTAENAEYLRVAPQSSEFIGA
Chain of EGFR wildtype (WT) (P00533 25-1210): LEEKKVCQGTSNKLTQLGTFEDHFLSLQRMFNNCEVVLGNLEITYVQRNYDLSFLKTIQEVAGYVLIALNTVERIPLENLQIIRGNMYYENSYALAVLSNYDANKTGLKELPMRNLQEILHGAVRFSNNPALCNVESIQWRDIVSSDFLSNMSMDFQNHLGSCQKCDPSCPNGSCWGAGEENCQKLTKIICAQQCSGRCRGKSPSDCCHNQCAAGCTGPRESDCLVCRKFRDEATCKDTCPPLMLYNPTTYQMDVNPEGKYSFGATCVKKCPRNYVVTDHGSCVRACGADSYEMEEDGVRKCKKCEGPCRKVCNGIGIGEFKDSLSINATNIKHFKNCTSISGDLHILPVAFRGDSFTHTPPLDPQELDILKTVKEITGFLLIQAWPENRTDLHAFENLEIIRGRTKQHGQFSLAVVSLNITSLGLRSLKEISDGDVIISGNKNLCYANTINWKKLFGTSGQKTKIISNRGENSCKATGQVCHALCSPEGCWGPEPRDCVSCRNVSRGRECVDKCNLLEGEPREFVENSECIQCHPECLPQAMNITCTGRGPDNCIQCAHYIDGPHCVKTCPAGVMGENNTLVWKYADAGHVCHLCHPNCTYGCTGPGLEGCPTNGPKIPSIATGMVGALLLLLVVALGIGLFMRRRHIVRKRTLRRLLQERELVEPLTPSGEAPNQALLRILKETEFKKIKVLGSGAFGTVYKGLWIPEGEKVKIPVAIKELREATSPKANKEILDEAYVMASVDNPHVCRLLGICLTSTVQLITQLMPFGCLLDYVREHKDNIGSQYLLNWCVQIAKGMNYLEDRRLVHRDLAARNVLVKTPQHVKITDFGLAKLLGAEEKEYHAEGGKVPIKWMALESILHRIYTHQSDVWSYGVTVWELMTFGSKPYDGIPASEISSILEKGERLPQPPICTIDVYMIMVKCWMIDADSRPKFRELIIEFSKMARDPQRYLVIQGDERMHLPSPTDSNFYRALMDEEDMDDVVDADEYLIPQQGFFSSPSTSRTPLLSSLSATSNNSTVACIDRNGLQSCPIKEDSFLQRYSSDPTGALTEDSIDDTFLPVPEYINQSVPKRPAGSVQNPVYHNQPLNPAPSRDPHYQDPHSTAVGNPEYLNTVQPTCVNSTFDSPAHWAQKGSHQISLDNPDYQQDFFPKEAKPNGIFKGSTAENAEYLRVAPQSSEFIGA
Chain of EGFR L858R/T790M/C797S (P00533 25-1210 T790M/C797S/L858R): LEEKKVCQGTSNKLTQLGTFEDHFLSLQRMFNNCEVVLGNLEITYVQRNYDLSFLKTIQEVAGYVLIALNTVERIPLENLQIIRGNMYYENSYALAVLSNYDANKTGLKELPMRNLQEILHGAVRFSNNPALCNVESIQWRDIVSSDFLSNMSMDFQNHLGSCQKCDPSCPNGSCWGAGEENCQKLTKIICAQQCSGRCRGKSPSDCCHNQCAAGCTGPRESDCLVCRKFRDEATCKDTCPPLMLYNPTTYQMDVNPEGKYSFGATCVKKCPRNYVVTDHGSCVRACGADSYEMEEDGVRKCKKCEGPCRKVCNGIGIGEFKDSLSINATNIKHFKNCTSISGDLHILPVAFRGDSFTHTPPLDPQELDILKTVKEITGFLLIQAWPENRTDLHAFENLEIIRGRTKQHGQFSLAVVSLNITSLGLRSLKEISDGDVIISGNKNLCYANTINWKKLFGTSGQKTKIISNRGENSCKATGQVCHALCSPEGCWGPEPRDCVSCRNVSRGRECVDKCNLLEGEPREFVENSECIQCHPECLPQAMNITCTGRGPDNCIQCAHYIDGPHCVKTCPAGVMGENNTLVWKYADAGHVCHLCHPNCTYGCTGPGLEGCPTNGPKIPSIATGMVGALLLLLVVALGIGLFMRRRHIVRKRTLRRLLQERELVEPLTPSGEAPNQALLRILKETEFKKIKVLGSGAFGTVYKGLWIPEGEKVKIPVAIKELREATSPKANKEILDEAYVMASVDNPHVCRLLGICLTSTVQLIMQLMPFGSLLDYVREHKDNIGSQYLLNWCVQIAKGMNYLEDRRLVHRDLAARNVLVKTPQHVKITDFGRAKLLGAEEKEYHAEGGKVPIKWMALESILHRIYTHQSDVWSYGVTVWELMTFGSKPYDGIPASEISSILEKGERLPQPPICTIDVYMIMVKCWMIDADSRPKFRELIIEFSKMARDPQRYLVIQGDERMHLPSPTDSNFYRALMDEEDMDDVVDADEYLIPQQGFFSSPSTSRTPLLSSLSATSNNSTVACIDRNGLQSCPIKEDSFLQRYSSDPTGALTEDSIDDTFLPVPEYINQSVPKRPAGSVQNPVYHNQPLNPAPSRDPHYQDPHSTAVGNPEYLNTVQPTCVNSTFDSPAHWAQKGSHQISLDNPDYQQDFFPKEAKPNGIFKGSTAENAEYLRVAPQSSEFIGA

| Compound | IC50 (EGFR del19/T790M/C797S; [1]) | IC50 (EGFR del19/T790M/C797S; [2]) | IC50 (EGFR L858R/T790M/C797S; [3]) | IC50 (EGFR L858R/T790M/C797S; [4]) | IC50 (EGFR del19/C797S; [5]) | IC50 (EGFR L858R/C797S; [6]) | IC50 (EGFR L858R/C797S; [7]) | IC50 (EGFR wildtype (WT); [8]) | IC50 (EGFR wildtype (WT); [9]) | IC50 (EGFR del19/C797S; [10]) |
| --- | --- | --- | --- | --- | --- | --- | --- | --- | --- | --- |
| C[C@]1(O)CC[C@@H](Nc2cc(Nc3ccnc(-c4cnn(S(=O)(=O)C5CC5)c4)n3)ncc2C(=O)C2CC2)CC1 [Example 33, Cyclopropyl(6-((2-(1-(cyclopropylsulfonyl)-1H-pyrazol-4-yl)pyrimidin-4-yl)amino)-4-(((1s,4s)-4-hydroxy-4-methylcyclohexyl)amino)pyridin-3-yl)methanone] | 0.8 nM | 1 nM | 0.8 nM | 0.3 nM | 1.7 nM | 6.5 nM | 0.9 nM | > 10000 nM | 13.9 nM |  |
| O=C(c1cnc(Nc2ccnc(-c3cnn(S(=O)(=O)C4CC4)c3)n2)cc1NC1CCCOC1)C1CC1 (centres unmarked) [Example 34, Cyclopropyl(6-((2-(1-(cyclopropylsulfonyl)-1H-pyrazol-4-yl)pyrimidin-4-yl)amino)-4-((tetrahydro-2H-pyran-3-yl)amino)pyridin-3-yl)methanone] | 2 nM |  | 5.3 nM |  | 124 nM | 398 nM |  | > 10000 nM |  |  |
| O=C(c1cnc(Nc2ccnc(-c3cnn(S(=O)(=O)C4CC4)c3)n2)cc1NC1CCOCC1)C1CC1 [Example 35, Cyclopropyl(6-((2-(1-(cyclopropylsulfonyl)-1H-pyrazol-4-yl)pyrimidin-4-yl)amino)-4-((tetrahydro-2H-pyran-4-yl)amino)pyridin-3-yl)methanone] | 5.2 nM |  | 23.1 nM |  | 602 nM | 543 nM |  | > 10000 nM |  |  |
| O=C(c1cnc(Nc2ccnc(-c3cnn(S(=O)(=O)C4CC4)c3)n2)cc1NC1CC[C@@H](O)[C@@H](O)C1)C1CC1 (stereo partly drawn) [Example 36, Cyclopropyl(6-((2-(1-(cyclopropylsulfonyl)-1H-pyrazol-4-yl)pyrimidin-4-yl)amino)-4-(((3S,4R)-3,4-dihydroxycyclohexyl)amino)pyridin-3-yl)methanone] | 0.5 nM |  | 0.9 nM |  | 5.4 nM | 15.5 nM |  | > 10000 nM |  |  |
| CN(C)CCN1CCC(Nc2cc(Nc3ccnc(-c4cnn(S(=O)(=O)C5CC5)c4)n3)ncc2C(=O)C2CC2)CC1 [Example 37, Cyclopropyl(6-((2-(1-(cyclopropylsulfonyl)-1H-pyrazol-4-yl)pyrimidin-4-yl)amino)-4-((1-(2-(dimethylamino)ethyl)piperidin-4-yl)amino)pyridin-3-yl)methanone] | 1.2 nM | 1 nM | 2 nM | 0.4 nM | 79.9 nM | 168 nM | 9.7 nM | > 10000 nM | 113 nM | 36.9 nM |
| O=C(c1cnc(Nc2ccnc(-c3cnn(S(=O)(=O)C4CC4)c3)n2)cc1NC1CCN(C2COC2)CC1)C1CC1 [Example 38, Cyclopropyl(6-((2-(1-(cyclopropylsulfonyl)-1H-pyrazol-4-yl)pyrimidin-4-yl)amino)-4-((1-(oxetan-3-yl)piperidin-4-yl)amino)pyridin-3-yl)methanone] | 2.7 nM |  | 9.9 nM |  | 231 nM | 200 nM |  | > 10000 nM |  |  |
| O=C(c1cnc(Nc2ccnc(-c3cnn(S(=O)(=O)C4CC4)c3)n2)cc1NC1CCCN(CCF)C1)C1CC1 (centres unmarked) [Example 39, Cyclopropyl(6-((2-(1-(cyclopropylsulfonyl)-1H-pyrazol-4-yl)pyrimidin-4-yl)amino)-4-((1-(2-fluoroethyl)piperidin-3-yl)amino)pyridin-3-yl)methanone] | 3.8 nM | 2.9 nM | 5.2 nM | 1.9 nM | 38.8 nM | 451 nM | 19 nM | > 10000 nM | 470 nM | 38.4 nM |
| C[C@]1(O)CC[C@@H](Nc2cc(Nc3ccnc(-c4cnn(S(=O)(=O)C5CC5)c4)n3)ncc2C(=O)CC2CCOCC2)CC1 [Example 40, 1-(6-((2-(1-(Cyclopropylsulfonyl)-1H-pyrazol-4-yl)pyrimidin-4-yl)amino)-4-(((1s,4s)-4-hydroxy-4-methylcyclohexyl)amino)pyridin-3-yl)-2-(tetrahydro-2H-pyran-4-yl)ethan-1-one] | 0.6 nM | 0.4 nM |  | 0.2 nM | 16.3 nM | 189 nM | 5.1 nM | > 10000 nM | 64.5 nM | 3.1 nM |
| O=C(c1cnc(Nc2ccnc(-c3cnn(S(=O)(=O)C4CC4)c3)n2)cc1NC[C@H]1CC[C@H](Cn2ccnc2)CC1)C1CC1 [Example 43, (4-((((1r,4r)-4-((1H-Imidazol-1-yl)methyl)cyclohexyl)methyl)amino)-6-((2-(1-(cyclopropylsulfonyl)-1H-pyrazol-4-yl)pyrimidin-4-yl)amino)pyridin-3-yl)(cyclopropyl)methanone] |  | 1.3 nM |  | 0.5 nM |  |  | 24 nM |  | 64.1 nM | 10.5 nM |
| CC(=O)c1cnc(Nc2ccnc(-c3cnn(S(=O)(=O)C4CC4)c3)n2)cc1NC(C)(C)C(C)O (centres unmarked) [Example 46, 1-(6-((2-(1-(Cyclopropylsulfonyl)-1H-pyrazol-4-yl)pyrimidin-4-yl)amino)-4-((3-hydroxy-2-methylbutan-2-yl)amino)pyridin-3-yl)ethan-1-one] |  | 0.6 nM |  | 7.3 nM |  |  | 471 nM |  | 1410 nM | 290 nM |
| CC(=O)c1cnc(Nc2ccnc(-c3cnn(S(=O)(=O)C4CC4)c3)n2)cc1NC1CCC(CO)C1 (centres unmarked) [Example 47, 1-(6-((2-(1-Cyclopropylsulfonylpyrazol-4-yl)pyrimidin-4-yl)amino)-4-((3-(hydroxymethyl)cyclopentyl)amino)-3-pyridyl)ethanone] |  | 0.1 nM |  | 0.6 nM |  |  | 51.3 nM |  | 145 nM | 10.5 nM |
| C[C@]1(O)CC[C@@H](Nc2cc(Nc3ccnc(-c4cnn(S(=O)(=O)C5CC5)c4)n3)ncc2C(=O)C(F)F)CC1 [Example 48, 1-(6-((2-(1-(Cyclopropylsulfonyl)-1H-pyrazol-4-yl)pyrimidin-4-yl)amino)-4-(((1s,4s)-4-hydroxy-4-methylcyclohexyl)amino)pyridin-3-yl)-2,2-difluoroethan-1-one] | 1 nM | 0.8 nM | 2.4 nM | 0.5 nM | 4.4 nM | 110 nM | 26.2 nM | > 10000 nM | 553 nM | 15.7 nM |
| O=C(c1cnc(Nc2ccnc(-c3cnn(S(=O)(=O)C4CC4)c3)n2)cc1N[C@H]1CC[C@@H](CO)CC1)C(F)F [Example 49, 1-(6-((2-(1-(Cyclopropylsulfonyl)-1H-pyrazol-4-yl)pyrimidin-4-yl)amino)-4-(((1s,4s)-4-(hydroxymethyl)cyclohexyl)amino)pyridin-3-yl)-2,2-difluoroethan-1-one] | 0.4 nM | 0.4 nM | 0.7 nM | 0.2 nM | 1.2 nM | 21.1 nM | 4 nM | > 10000 nM | 181 nM | 2.6 nM |
| O=C(c1cnc(Nc2ccnc(-c3cnn(S(=O)(=O)C4CC4)c3)n2)cc1NC1CCC(NCCO)CC1)C1CC1 (centres unmarked) [Example 52, Cyclopropyl(6-((2-(1-(cyclopropylsulfonyl)-1H-pyrazol-4-yl)pyrimidin-4-yl)amino)-4-((4-((2-hydroxyethyl)amino)cyclohexyl)amino)pyridin-3-yl)methanone] | 1.1 nM |  | 1.8 nM |  | 26 nM | 15.2 nM |  | > 10000 nM |  |  |
